From US9464056B2, “Fungicidal 4-methylanilino pyrazoles” (E. I. DU PONT DE NEMOURS AND COMPANY, priority 2012, dated 2016)

Legend:
Alternaria solani = experiment: Test B: preventive spray on tomato seedlings, Alternaria solani (tomato early blight), visual disease rating; assay type: in vivo; settings: 100 = 100% disease control, 0 = no disease control relative to controls
Source text: (§1) General protocol for preparing test suspensions for Tests A-H: the test compounds were first dissolved in acetone in an amount equal to 3% of the final volume and then suspended at the desired concentration (in ppm) in acetone and purified water (50/50 mix by volume) containing 250 ppm of the surfactant Trem® 014 (polyhydric alcohol esters). The resulting test suspensions were then used in Tests A-F. Spraying a 40 ppm test suspension to the point of run-off on the test plants was the equivalent of a rate of 160 g/ha. Unless otherwise indicated, the rating values indicate a 40 ppm test suspension was used. The test suspension was sprayed to the point of run-off on tomato seedlings. The following day the seedlings were inoculated with a spore suspension of Alternaria solani (the causal agent of tomato early blight) and incubated in a saturated atmosphere at 27° C. for 48 h, and then moved to a growth chamber at 24° C. for 5 days, after which time visual disease ratings were made. Results for Tests A-F are given in Table A. In the Table, a rating of 100 indicates 100% disease control and a rating of 0 indicates no disease control (relative to the controls). A dash (-) indicates no test results.

Septoria nodorum = experiment: Test C: preventive spray on wheat seedlings, Septoria nodorum (Septoria glume blotch), visual disease rating; assay type: in vivo; settings: Parastagonospora nodorum, topical, 264 h, 100 = 100% disease control, 0 = no disease control relative to controls
Source text: as §1, with “on wheat” for “on tomato”, “of Septoria nodorum” for “of Alternaria solani”, “of Septoria glume blotch)” for “of tomato early blight)”, “at 20°” for “at 27°”, “at 20°” for “at 24°”, “for 9” for “for 5”

[1] = Single oral dose pharmacokinetics in rats, plasma and fat analysed by LC/MS (fat:plasma ratio); assay type: in vivo; settings: vertebrate animals (rats), single oral gavage dose; compared to corresponding analogs
Experimental: The pharmacokinetic properties of compounds of Formula 1 can be measured using a wide variety of assay protocols known in the science of pharmacology. In one illustrative method involving a single oral dose, three male and three female rats receive a single dose of a test substance via oral gavage. Approximately 0.25 mL of blood is collected via tail vein immediately prior to dosing, and then at 0.25, 0.5, 1, 2, 4, 8, 12, 24 h and every 24 h thereafter until sacrifice. At sacrifice, fat is also collected to determine the fat:plasma ratio at sacrifice. […] After removal of the proteins, the plasma is analyzed for parent compound and/or metabolites by liquid chromatography-mass spectrometry (LC/MS). […] The extract is then analyzed for parent compound and/or metabolites by LC/MS. The plasma pharmacokinetic data is then analyzed using nonlinear modeling software (e.g., WinNonlin™ from Pharsight, Cary, N.C., U.S.A.) to determine half-life of the administered compound in plasma, the time after administration when the maximum plasma concentration is reached (Tmax), the maximum plasma concentration (Cmax) and the area under the plasma concentration curve (AUC). […] However, by using multiple rats sacrificed after different intervals from time of dosing, such parameters as Cmax for fat are determined.

Structure (SMILES): Cc1cc(F)c(Nc2c(-c3ccc(F)cc3Cl)c(C)nn2C)c(Br)c1 [Compound 1, N-(2-bromo-6-fluoro-4-methylphenyl)-4-(2-chloro-4-fluorophenyl)-1,3-dimethyl-1H-pyrazol-5-amine]
- melting point: 132 to 133 °C
- Test B rating (% disease control) (Alternaria solani): 99
- pest or weed control at 40 µg/mL (Septoria nodorum): 90%
- distribution into fat [1]: significantly diminished distribution into fat
